Experiments:
human JAK1 = target: T1, human JAK1 (Homo sapiens, UniProt P23458); assay: JAK1 inhibition assay (polyGT substrate / Ulight-JAK1 peptide); assay type: biochemical; conditions: recombinant human JAK1 catalytic domain; polyGT or Ulight-JAK1 peptide assay
T1 construct: catalytic domain, amino acids 866-1154; catalog number PV4774; purchased Invitrogen PV4774
Outline: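 Two formats. PolyGT radiometric: 45 min at 30 °C, stopped with phosphoric acid, counted as cpm. Ulight-JAK1 peptide: 60 min at room temperature, stopped with Eu-anti-phosphotyrosine/EDTA, read as RFU. Percent inhibition normalised to vehicle and 10 μM staurosporine.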

human JAK2 = target: T2, human JAK2 (Homo sapiens, UniProt O60674); assay: JAK2 inhibition assay (polyGT substrate / Ulight-JAK1 peptide); assay type: biochemical; conditions: recombinant human JAK2 catalytic domain; polyGT or Ulight-JAK1 peptide assay
T2 construct: catalytic domain (amino acids 808-1132; catalog number PV4210); GST; purchased Invitrogen PV4210
T2 sequence (O60674 808-1132): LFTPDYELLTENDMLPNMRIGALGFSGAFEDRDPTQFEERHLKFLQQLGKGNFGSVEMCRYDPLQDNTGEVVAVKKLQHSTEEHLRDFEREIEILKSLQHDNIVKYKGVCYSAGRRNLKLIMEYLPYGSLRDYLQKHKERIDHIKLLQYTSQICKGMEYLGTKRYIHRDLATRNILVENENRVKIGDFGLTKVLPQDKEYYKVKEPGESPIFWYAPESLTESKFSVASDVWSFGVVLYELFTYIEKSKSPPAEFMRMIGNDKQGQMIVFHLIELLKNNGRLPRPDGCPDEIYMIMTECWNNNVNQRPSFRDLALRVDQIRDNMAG
Outline: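 Radiometric: 0.025 mU JAK2 with 2.5 μg polyGT, 1 μM ATP plus ^33P-ATP in MOPS pH 7.5 buffer, 1% DMSO, 90 min at 30° C.; filter counting. Alternative TR-FRET format with Ulight-JAK1 peptide, 60 min at room temperature, Eu-anti-phosphotyrosine detection.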

human JAK3 = target: T3, human JAK3 (Homo sapiens, UniProt P52333); assay: JAK3 inhibition assay; assay type: biochemical; conditions: recombinant human JAK3 catalytic domain; polyGT substrate
T3 construct: catalytic domain (amino acids 781-1124; catalog number PV3855); purchased Invitrogen PV3855
T3 sequence (P52333 781-1124): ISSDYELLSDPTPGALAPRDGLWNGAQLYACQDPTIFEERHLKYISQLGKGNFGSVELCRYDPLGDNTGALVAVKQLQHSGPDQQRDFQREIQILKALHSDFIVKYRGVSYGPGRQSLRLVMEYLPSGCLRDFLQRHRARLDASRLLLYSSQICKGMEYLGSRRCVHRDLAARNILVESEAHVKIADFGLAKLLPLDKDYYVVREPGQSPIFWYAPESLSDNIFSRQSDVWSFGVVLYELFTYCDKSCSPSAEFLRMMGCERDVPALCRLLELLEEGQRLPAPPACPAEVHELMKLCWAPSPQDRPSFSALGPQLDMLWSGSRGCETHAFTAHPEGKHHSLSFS
Outline: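 Radiometric kinase assay: 0.5 ng JAK3 with 2.5 μg polyGT in Tris pH 7.5/MgCl2 buffer, 1 μM ATP plus 0.25 μCi 33P-γ-ATP, 1% DMSO, 45 min at 30 °C, stopped with phosphoric acid.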

human TYK2 = target: T4, human TYK2 (Homo sapiens, UniProt P29597); assay: TYK2 inhibition assay; assay type: biochemical; conditions: recombinant human TYK2 catalytic domain, polyGT substrate
T4 construct: catalytic domain (amino acids 871-1187; catalog number 08-147); purchased Carna Biosciences 08-147
T4 sequence (P29597 871-1187): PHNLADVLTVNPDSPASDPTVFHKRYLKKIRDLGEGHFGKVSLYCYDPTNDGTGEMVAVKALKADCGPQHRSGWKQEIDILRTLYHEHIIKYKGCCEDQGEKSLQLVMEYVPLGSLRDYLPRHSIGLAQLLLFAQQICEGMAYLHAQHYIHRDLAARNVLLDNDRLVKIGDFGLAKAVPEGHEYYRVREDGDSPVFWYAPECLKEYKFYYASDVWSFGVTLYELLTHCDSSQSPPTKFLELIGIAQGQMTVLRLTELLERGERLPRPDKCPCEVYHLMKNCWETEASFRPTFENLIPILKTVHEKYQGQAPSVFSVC
Outline: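 Radiometric kinase reaction run 90 min at 30 °C, stopped with phosphoric acid, washed and scintillation-counted.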

CTLL-2 cell line = assay: CTLL2 viability assay; assay type: cell-based; conditions: Mus musculus, IL-2 dependent CTLL2 viability, 24 h, ATP-lite
Source text: The protocol describes the methods to analyse the activity of compounds on their ability to sustain the IL2-dependent viability of CTLL2.
Final DMSO concentration was 0.1%.

BA/F3 cell line = assay: BA/F3 viability assay; conditions: Mus musculus, BaF3, 48 h, read-out: BA/F3 IC50

T1 sequence (P23458 866-1154): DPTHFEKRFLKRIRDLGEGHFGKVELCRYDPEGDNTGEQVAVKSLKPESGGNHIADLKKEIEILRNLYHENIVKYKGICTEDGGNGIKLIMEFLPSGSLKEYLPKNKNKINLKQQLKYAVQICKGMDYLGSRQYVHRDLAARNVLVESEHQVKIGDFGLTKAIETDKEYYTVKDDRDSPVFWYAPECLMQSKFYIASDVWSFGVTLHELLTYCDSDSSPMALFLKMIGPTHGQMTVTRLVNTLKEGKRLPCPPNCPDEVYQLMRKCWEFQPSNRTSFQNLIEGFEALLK

Row | IC50 (human JAK1) | IC50 (human JAK2) | IC50 (human JAK3) | IC50 (human TYK2) | IC50 (BA/F3 cell line) | Compound | IC50 (CTLL-2 cell line)
1 | 0.01 to 100 nM | 0.01 to 100 nM | 501 to 1000 nM | 101 to 500 nM | > 5000 nM | CCc1cc(CC#N)ncc1N(C)c1cc2c(cn1)ncn2C [Compound 407, {4-Ethyl-5-[methyl-(1-methyl-1H-imidazo[4,5-c]pyridin-6-yl)-amino]-pyridin-2-yl}-acetonitrile] | > 1000 nM
2 | 0.01 to 100 nM | 101 to 500 nM | 0.01 to 100 nM | 101 to 500 nM | > 5000 nM | CCc1cc(CN(CC#N)S(C)(=O)=O)ncc1N(C)c1cc2c(cn1)ncn2C [Compound 344, N-Cyanomethyl-N-{4-ethyl-5-[methyl-(1-methyl-1H-imidazo[4,5-c]pyridin-6-yl)-amino]-pyridin-2-ylmethyl}-methanesulfonamide] | > 1000 nM
3 | 0.01 to 100 nM | 101 to 500 nM | > 1000 nM | 501 to 1000 nM | > 5000 nM | CCc1cc(CN2CC(C#N)C2)ccc1N(C)c1cc2c(cn1)ncn2C [Compound 381, 1-{3-Ethyl-4-[methyl-(1-methyl-1H-imidazo[4,5-c]pyridin-6-yl)-amino]-enzyl}-azetidine-3-carbonitrile] | > 1000 nM
4 | 0.01 to 100 nM | 101 to 500 nM | > 1000 nM | 101 to 500 nM | > 5000 nM | CCc1cc(C2CN(C(=O)COC)C2)ccc1N(C)c1cc2c(cn1)ncn2C [Compound 350, 1-(3-{3-Ethyl-4-[methyl-(1-methyl-1H-imidazo[4,5-c]pyridin-6-yl)-amino]-phenyl}-azetidin-1-yl)-2-methoxy-ethanone] | > 1000 nM
5 | 0.01 to 100 nM | 0.01 to 100 nM | 101 to 500 nM | 101 to 500 nM | 1000 to 5000 nM | CCc1cc(CNS(=O)(=O)NC)ccc1N(C)c1cc2c(cn1)ncn2C [Compound 376, Methyl amino-N-{3-Ethyl-4-[methyl-(1-methyl-1H-imidazo[4,5-c]pyridin-6-yl)-amino]-benzyl}-sulfonamide] | > 1000 nM
6 | 501 to 1000 nM | > 1000 nM | > 1000 nM | > 1000 nM | > 5000 nM | CCc1cc(C2CN(C(=O)C3CCOCC3)C2)ncc1N(C)c1cc2c(cn1)ncn2C [Compound 337, (3-{4-Ethyl-5-[methyl-(1-methyl-1H-imidazo[4,5-c]pyridin-6-yl)-amino]-pyridin-2-yl}-azetidin-1-yl)-(tetrahydro-pyran-4-yl)-methanone] | > 1000 nM
7 | 0.01 to 100 nM | 0.01 to 100 nM | 101 to 500 nM | 101 to 500 nM | 1000 to 5000 nM | CCc1cc(CNCC(F)(F)F)ccc1N(C)c1cc2c(cn1)ncn2C [Compound 380] | > 1000 nM
8 | 0.01 to 100 nM | 0.01 to 100 nM | 0.01 to 100 nM | 0.01 to 100 nM | > 5000 nM | CCc1cc(C2(CC#N)COC2)ccc1N(C)c1cc2c(cn1)ncn2C [Compound 389, (3-{3-Ethyl-4-[methyl-(1-methyl-1H-imidazo[4,5-c]pyridin-6-yl)-amino]-phenyl}-oxetan-3-yl)-acetonitrile] | > 1000 nM
9 | 0.01 to 100 nM | 0.01 to 100 nM | 101 to 500 nM | 0.01 to 100 nM | > 5000 nM | CCc1cc(C2(CCNS(C)(=O)=O)COC2)ccc1N(C)c1cc2c(cn1)ncn2C [Compound 392, N-[2-(3-{3-Ethyl-4-[methyl-(1-methyl-1H-imidazo[4,5-c]pyridin-6-yl)-amino]-phenyl}-oxetan-3-yl)-ethyl]-methanesulfonamide] | > 1000 nM
10 | 0.01 to 100 nM | 0.01 to 100 nM | 0.01 to 100 nM | 0.01 to 100 nM | > 5000 nM | CCc1cc(C(C#N)N2CCOCC2)ccc1N(C)c1cc2c(cn1)ncn2C (stereo not drawn) [Compound 393, {3-Ethyl-4-[methyl-(1-methyl-1H-imidazo[4,5-c]pyridin-6-yl)-amino]-phenyl}-morpholin-4-yl-acetonitrile] | > 1000 nM
11 | 501 to 1000 nM | > 1000 nM | > 1000 nM | > 1000 nM | > 5000 nM | CN(c1cc2c(cn1)ncn2C)c1ccc(C2CN(C(=O)OC(C)(C)C)C2)cc1OC(F)F [Compound 362, 3-{3-Difluoromethoxy-4-[methyl-(1-methyl-1H-imidazo[4,5-]pyridin-6-yl)-amino]-phenyl}-azetidine-1-carboxylic acid tert-butyl ester] | > 1000 nM
12 | 0.01 to 100 nM | 0.01 to 100 nM | 101 to 500 nM | 0.01 to 100 nM | 1000 to 5000 nM | CCc1cc(N2CC(C#N)C2)ncc1N(C)c1cc2c(cn1)ncn2C [Compound 402, 1-{4-Ethyl-5-[methyl-(1-methyl-1H-imidazo[4,5-c]pyridin-6-yl)-amino]-pyridin-2-yl}-azetidine-3-carbonitrile] | > 1000 nM
13 | 0.01 to 100 nM | 0.01 to 100 nM | 0.01 to 100 nM | 0.01 to 100 nM | 1000 to 5000 nM | CN(c1cc2c(cn1)ncn2C)c1ccc(CN(C)S(C)(=O)=O)cc1OC(F)F [Compound 430, N-{3-Difluoromethoxy-4-[methyl-(1-methyl-1H-imidazo[4,5-c]pyridin-6-yl)-amino]-benzyl}-N-methyl-methanesulfonamide] | > 1000 nM
14 | 0.01 to 100 nM | 0.01 to 100 nM | 101 to 500 nM | 101 to 500 nM | > 5000 nM | CCc1cc(C2CN(CC#N)C2)ccc1N(C)c1cc2c(cn1)ncn2C [Compound 351, (3-{3-Ethyl-4-[methyl-(1-methyl-1H-imidazo[4,5-c]pyridin-6-yl)-amino]-phenyl}-azetidin-1-yl)-acetonitrile] | > 1000 nM
15 | 0.01 to 100 nM | 0.01 to 100 nM | 0.01 to 100 nM | 0.01 to 100 nM | > 5000 nM | CCc1cc(C(C#N)N2CCN(C(C)=O)CC2)ccc1N(C)c1cc2c(cn1)ncn2C (stereo not drawn) [Compound 396, (4-Acetyl-piperazin-1-yl)-{3-ethyl-4-[methyl-(1-methyl-1H-imidazo[4,5-c]pyridin-6-yl)-amino]phenyl}-acetonitrile] | > 1000 nM
16 | 0.01 to 100 nM | 0.01 to 100 nM | 0.01 to 100 nM | 0.01 to 100 nM | 1000 to 5000 nM | CCc1cc(CN(C)S(C)(=O)=O)cc(F)c1N(C)c1cc2c(cn1)ncn2C [Compound 356, N-{3-Ethyl-5-fluoro-4-[methyl-(1-methyl-M-imidazo[4,5-c]pyridin-6-yl)-amino]-benzyl}-N-methyl-methanesulfonamide] | 501 to 1000 nM
17 | 0.01 to 100 nM | 0.01 to 100 nM | 101 to 500 nM | 101 to 500 nM | > 5000 nM | CN(c1cc2c(cn1)ncn2C)c1ccc(CN(C)S(C)(=O)=O)cc1F [Compound 358, N-{3-Fluoro-4-[methyl-(1-methyl-1H-imidazo[4,5-c]pyridin-6-yl)-amino]-benzyl}-N-methyl-methanesulfonamide] | > 1000 nM
18 | 0.01 to 100 nM | 101 to 500 nM | 101 to 500 nM | 101 to 500 nM | > 5000 nM | CCc1cc(C2CN(C(=O)C(F)(F)F)C2)ccc1N(C)c1cc2c(cn1)ncn2C [Compound 347, 1-(3-{3-Ethyl-4-[methyl-(1-methyl-1H-imidazo[4,5-c]pyridin-6-yl)-amino]-phenyl}-azetidin-1-yl)-2,2,2-trifluoro-ethanone] | > 1000 nM
19 | 0.01 to 100 nM | 0.01 to 100 nM | 101 to 500 nM | 0.01 to 100 nM | 1000 to 5000 nM | CCc1cc(C(C#N)N2CC(C#N)C2)ccc1N(C)c1cc2c(cn1)ncn2C (stereo not drawn) [Compound 391, 1-(Cyano-{3-ethyl-4-[methyl-(1-methyl-1H-imidazo[4,5-c]pyridin-6-yl)-amino]-phenyl}-methyl)-azetidine-3-carbonitrile] | > 1000 nM
20 | 0.01 to 100 nM | 101 to 500 nM | 101 to 500 nM | 101 to 500 nM | 1000 to 5000 nM | CN(c1cc2c(cn1)ncn2C)c1ccc(C2CN(S(=O)(=O)N(C)C)C2)cc1OC(F)F [Compound 369] | > 1000 nM

— patent publication US20130217664A1, “NOVEL COMPOUNDS USEFUL FOR THE TREATMENT OF DEGENERATIVE AND INFLAMMATORY DISEASES” (priority 2012, published 2013)
